{
  "source": "paper PMC9148196",
  "about": "(The AAPS journal, 2021)",
  "target": "P-glycoprotein (P-gp, MDR1) (Homo sapiens, UniProt P08183)",
  "sequence (P08183 whole entry)": "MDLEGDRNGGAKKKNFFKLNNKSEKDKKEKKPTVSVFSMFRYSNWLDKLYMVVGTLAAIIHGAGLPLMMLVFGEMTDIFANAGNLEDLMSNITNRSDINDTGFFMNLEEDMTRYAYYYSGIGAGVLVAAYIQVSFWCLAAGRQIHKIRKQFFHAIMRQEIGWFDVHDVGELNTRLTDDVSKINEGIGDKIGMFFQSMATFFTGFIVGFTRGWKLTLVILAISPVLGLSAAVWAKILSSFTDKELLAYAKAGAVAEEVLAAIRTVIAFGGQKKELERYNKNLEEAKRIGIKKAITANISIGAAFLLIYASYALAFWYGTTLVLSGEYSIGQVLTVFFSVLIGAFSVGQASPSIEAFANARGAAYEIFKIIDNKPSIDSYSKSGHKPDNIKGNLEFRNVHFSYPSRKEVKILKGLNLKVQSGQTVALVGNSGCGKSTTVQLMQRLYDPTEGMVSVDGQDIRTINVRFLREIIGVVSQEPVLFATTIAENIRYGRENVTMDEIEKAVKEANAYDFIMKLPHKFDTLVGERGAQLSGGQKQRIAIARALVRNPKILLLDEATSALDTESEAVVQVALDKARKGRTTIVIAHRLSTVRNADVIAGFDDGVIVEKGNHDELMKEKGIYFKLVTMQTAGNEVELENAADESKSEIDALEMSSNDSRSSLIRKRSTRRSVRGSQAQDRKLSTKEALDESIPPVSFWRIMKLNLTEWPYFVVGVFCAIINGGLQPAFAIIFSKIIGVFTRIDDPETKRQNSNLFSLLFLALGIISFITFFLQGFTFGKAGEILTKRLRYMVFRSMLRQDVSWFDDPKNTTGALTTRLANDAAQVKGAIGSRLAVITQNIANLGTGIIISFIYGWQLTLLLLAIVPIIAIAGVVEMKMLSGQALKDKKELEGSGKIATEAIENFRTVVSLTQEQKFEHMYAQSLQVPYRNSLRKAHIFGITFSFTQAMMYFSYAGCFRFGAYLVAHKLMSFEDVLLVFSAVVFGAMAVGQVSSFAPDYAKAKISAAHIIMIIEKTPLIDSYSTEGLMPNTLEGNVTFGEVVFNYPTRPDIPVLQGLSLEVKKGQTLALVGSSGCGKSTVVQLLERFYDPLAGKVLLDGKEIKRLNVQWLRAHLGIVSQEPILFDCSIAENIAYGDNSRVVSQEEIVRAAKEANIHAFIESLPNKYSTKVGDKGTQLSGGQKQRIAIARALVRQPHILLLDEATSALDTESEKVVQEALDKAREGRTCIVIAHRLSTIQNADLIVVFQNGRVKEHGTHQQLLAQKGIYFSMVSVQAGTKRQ",
  "experiment": "basal-to-apical [3H]digoxin flux in MDCK-hMDR1-cMDR1-KO cells, dose-response",
  "type": "cell-based",
  "data": [
    {"smiles": "CCN(Cc1cccc(S(=O)(=O)O)c1)c1ccc(C(=C2C=CC(=[N+](CC)Cc3cccc(S(=O)(=O)[O-])c3)C=C2)c2ccc(S(=O)(=O)O)cc2)cc1", "note": "[Light green SF yellowish]", "values": [
      {"measurement": "IC50", "value": 204, "unit": "µM"}
    ]}
  ]
}
